Reference: patent US20070287726A1, “5-Substituted 1H-Pyrrolo [3,2-B] Pyridines” (Altana Pharma AG, priority 2004, published 2007)

What was measured:
[1] = system: pentagastrin-stimulated acid secretion of the perfused rat stomach; assay: Secretion-inhibiting action on the perfused rat stomach; format: in vivo; conditions: anesthetized CD rat
Source text: In Table A which follows, the influence of the compounds of the formula 1 according to the invention on the pentagastrin-stimulated acid secretion of the perfused rat stomach after intraduodenal/intravenous administration in vivo is shown.
The abdomen of anesthetized rats (CD rat, female, 200-250 g; 1.5 g/kg i.m. urethane) was opened after tracheotomy by a median upper abdominal incision and a PVC catheter was fixed transorally in the esophagus and another via the pylorus such that the ends of the tubes just projected into the gastric lumen. The catheter leading from the pylorus led outward into the right abdominal wall through a side opening.
After thorough rinsing (about 50-100 ml), warm (37° C.) physiological NaCl solution was continuously passed through the stomach (0.5 ml/min, pH 6.8-6.9; Braun-Unita I). The pH (pH meter 632, glass electrode EA 147; φ=5 mm, Metrohm) and, by titration with a freshly prepared 0.01N NaOH solution to pH 7 (Dosimat 665 Metrohm), the secreted HCl were determined in the effluent in each case collected at an interval of 15 minutes.
The gastric secretion was stimulated by continuous infusion of 1 μg/kg (=1.65 ml/h) of i.v. pentagastrin (left femoral vein) about 30 min after the end of the operation (i.e. after determination of 2 preliminary fractions). The substances to be tested were administered intraduodenally (substance 7 intravenously) in a 2.5 ml/kg liquid volume 60 min after the start of the continuous pentagastrin infusion.
The body temperature of the animals was kept at a constant 37.8-38° C. by infrared irradiation and heat pads (automatic, stepless control by means of a rectal temperature sensor).

| Compound | Inhibition of acid secretion (%) ([1]; dose 1 μmol/kg i.d.) | melting point | further results |
| --- | --- | --- | --- |
| CCc1cccc(C)c1CNc1cc(C(=O)N(C)C)nc2c(CO)c(C)[nH]c12 [Example 6, 7-(2-Ethyl-6-methyl-benzylamino)-3-hydroxymethyl-2-methyl-1H-pyrrolo[3,2-b]pyridine-5-carboxylic acid dimethylamide] | >30% |  |  |
| Cc1cccc(C)c1CNc1cc(C(=O)N(C)C)nc2c(Br)c(C)[nH]c12 [Example 12, 3-Bromo-7-(2,6-dimethyl-benzylamino)-2-methyl-1H-pyrrolo[3,2-b]pyridine-5-carboxylic acid dimethylamide] |  |  | Inhibition of acid secretion (%) ([1]; dose 3 μmol/kg i.d.): >60% |
| CCOC(=O)c1cc(NCc2c(C)cccc2C)c2[nH]c(C)cc2n1 [Example 9, Ethyl[7-(2,6-dimethyl-benzylamino)-2-methyl-1H-pyrrolo[3,2-b]pyridine-5-carboxylate]] |  | 254 °C |  |
| CCc1cccc(C)c1CNc1cc(C(=O)N(C)C)nc2c(Br)c(C)[nH]c12 [Example 5, 3-Bromo-7-(2-ethyl-6-methyl-benzylamino)-2-methyl-1H-pyrrolo[3,2-b]pyridine-5-carboxylic acid dimethylamide] | >30% |  |  |
| CCOC(=O)c1cc(NCc2c(C)cccc2CC)c2[nH]c(C)cc2n1 [Example 2, Ethyl[7-(2-ethyl-6-methyl-benzylamino)-2-methyl-1H-pyrrolo[3,2-b]pyridine-5-carboxylate]] |  | 274 to 275 °C |  |
| CCc1cccc(C)c1CNc1cc(C(=O)N(C)C)nc2c(C)c(C)[nH]c12 [Example 7, 7-(2-Ethyl-6-methyl-benzylamino)-2,3-dimethyl-1H-pyrrolo[3,2-b]pyridine-5-carboxylic acid dimethylamide] |  |  | Inhibition of acid secretion (%) ([1]; dose 2 μmol/kg i.v.): >80% |
| CCOC(=O)c1cc(NCc2c(C)cccc2C)c2[nH]c(C)c(CO)c2n1 [Example 19, Ethyl[7-(2,6-dimethyl-benzylamino)-3-hydroxymethyl-2-methyl-1H-pyrrolo[3,2-b]pyridine-5-carboxylate]] |  | 256 to 259 °C |  |
| CCc1cccc(C)c1CNc1cc(Cl)nc2cc(C)[nH]c12 [Example 1, (5-Chloro-2-methyl-1H-pyrrolo[3,2-b]pyridin-7-yl)-(2-ethyl-6-methyl-benzyl)-amine] |  | 296 °C |  |
| Cc1cccc(C)c1CNc1cc(C(=O)N(C)C)nc2c(C)c(C)[nH]c12 [Example 14, 7-(2,6-Dimethyl-benzylamino)-2,3-dimethyl-1H-pyrrolo[3,2-b]pyridine-5-carboxylic acid dimethylamide] | >50% |  |  |
